In ChEMBL document CHEMBL1134749, “Synthesis and structure-activity relationships of 5-substituted pyridine analogues of 3” (Bioorg Med Chem Lett, 2001):
pEC50, pIC50, pKi: −log10 of the molar value.

The molecules below were run against Nicotinic acetylcholine receptor alpha3/betaX (assay: (§1) Antagonistic activity against neuronal nicotinic acetylcholine receptor (alpha3-betaX subunit) in IMR 32 cell line using 100 uM of (-)-nicotine as agonist).
Format: functional, cell-based, Homo sapiens

Row | Structure (SMILES) | pEC50
1 | CN1CCC[C@H]1COc1cncc(-c2cncnc2)c1 | 4.49

These molecules were tested against Nicotinic acetylcholine receptor alpha3/betaX (assay: as §1).
Format: functional, cell-based

Row | Structure (SMILES) | pIC50
2 | Cc1ccc(-c2cncc(OC[C@@H]3CCCN3C)c2)cc1 | 6.10
3 | CN1CCC[C@H]1COc1cncc(-c2ccco2)c1 | 5.10
4 | CN1CCC[C@H]1COc1cncc(-c2ccc(C(F)(F)F)cc2)c1 | 5.24
5 | CN1CCC[C@H]1COc1cncc(-c2cccc([N+](=O)[O-])c2)c1 | 5.63
6 | Cc1ccccc1-c1cncc(OC[C@@H]2CCCN2C)c1 | 5.90
7 | CN1CCC[C@H]1COc1cncc(-c2cccc3ccccc23)c1 | 6.16
8 | CN1CCC[C@H]1COc1cncc(CCc2ccccc2)c1 | 5.96
9 | CN1CCC[C@H]1COc1cncc(-c2ccc(Cl)cc2)c1 | 5.70
10 | CN1CCC[C@H]1COc1cncc(-c2ccc(Cl)cc2Cl)c1 | 6.05
11 | CN1CCC[C@H]1COc1cncc(-c2ccc3ccccc3c2)c1 | 5.47
12 | CN1CCC[C@H]1COc1cncc(/C=C/c2ccccc2)c1 | 5.32
13 | CN1CCC[C@H]1COc1cncc(-c2cccc(N)c2)c1 | 5.16
14 | Cc1ccc(C#Cc2cncc(OC[C@@H]3CCCN3C)c2)cc1 | 5.82
15 | CN1CCC[C@H]1COc1cncc(-c2cccs2)c1 | 5.77
16 | CN1CCC[C@H]1COc1cncc(-c2ccccc2C=O)c1 | 5.20
17 | CN1CCC[C@H]1COc1cncc(-c2cc(C(F)(F)F)cc(C(F)(F)F)c2)c1 | 5.63
18 | CN1CCC[C@H]1COc1cncc(-c2cc3ccccc3o2)c1 | 5.54
19 | CN1CCC[C@H]1COc1cncc(-c2cnc3ccccc3c2)c1 | 5.29
20 | CN1CCC[C@H]1COc1cncc(CCc2ccncc2)c1 | 5.20
21 | CN1CCC[C@H]1COc1cncc(-c2cccnc2)c1 | 4.61
22 | CN1CCC[C@H]1COc1cncc(C#Cc2ccccc2)c1 | 6.10
23 | CN1CCC[C@H]1COc1cncc(-c2cc3ccccc3n2C)c1 | 5.21
24 | CN1CCC[C@H]1COc1cncc(/C=C/c2ccncc2)c1 | 5.12
25 | CN1CCC[C@H]1COc1cncc(-c2ccc(F)c(Cl)c2)c1 | 5.14
26 | COc1ccc(-c2cncc(OC[C@@H]3CCCN3C)c2)cc1 | 5.16
27 | CN1CCC[C@H]1COc1cncc(-c2ccccc2)c1 | 5.29
28 | CN1CCC[C@H]1COc1cncc(-c2ccc(F)cc2)c1 | 5.19

What follows are molecules tested against Nicotinic acetylcholine receptor alpha3/betaX (Homo sapiens) (UniProt P11230+P17787+P30926+P32297+Q05901) (assay: Antagonistic activity against Nicotinic acetylcholine receptor (alpha3-betaX subunit) in IMR 32 cell line using 100 uM of (-)-nicotine as agonist).
Format: functional, cell-based

Row | Structure (SMILES) | Max efficacy
29 | CN1CCC[C@H]1COc1cncc(-c2cncnc2)c1 | 38.9%

Each molecule was assayed against Neuronal acetylcholine receptor; alpha4/beta2 (Rattus norvegicus, UniProt P09483+P12390) (assay: In vitro ability to displace [3H](-)-cytisine binding to whole rat brain membranes at Nicotinic acetylcholine receptor alpha4-beta2).
Design: species or system Membrane

Sequence of Neuronal acetylcholine receptor; alpha4/beta2 (P09483 whole entry): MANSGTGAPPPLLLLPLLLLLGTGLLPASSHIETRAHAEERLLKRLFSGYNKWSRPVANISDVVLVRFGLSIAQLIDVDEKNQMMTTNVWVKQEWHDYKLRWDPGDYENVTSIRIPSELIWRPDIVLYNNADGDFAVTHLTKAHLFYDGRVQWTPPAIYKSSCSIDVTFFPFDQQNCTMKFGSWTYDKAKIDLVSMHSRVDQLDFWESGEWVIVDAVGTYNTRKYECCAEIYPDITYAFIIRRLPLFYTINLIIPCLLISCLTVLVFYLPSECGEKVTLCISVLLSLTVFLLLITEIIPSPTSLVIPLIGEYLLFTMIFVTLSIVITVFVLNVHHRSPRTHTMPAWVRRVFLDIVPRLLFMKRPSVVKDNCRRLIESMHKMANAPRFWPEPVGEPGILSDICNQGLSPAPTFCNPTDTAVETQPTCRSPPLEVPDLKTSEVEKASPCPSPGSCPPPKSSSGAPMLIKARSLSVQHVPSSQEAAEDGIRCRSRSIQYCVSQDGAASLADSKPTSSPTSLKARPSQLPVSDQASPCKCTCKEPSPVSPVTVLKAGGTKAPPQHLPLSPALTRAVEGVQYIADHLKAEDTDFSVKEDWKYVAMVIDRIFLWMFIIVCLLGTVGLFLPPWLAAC
Sequence of Neuronal acetylcholine receptor; alpha4/beta2 (P12390 whole entry): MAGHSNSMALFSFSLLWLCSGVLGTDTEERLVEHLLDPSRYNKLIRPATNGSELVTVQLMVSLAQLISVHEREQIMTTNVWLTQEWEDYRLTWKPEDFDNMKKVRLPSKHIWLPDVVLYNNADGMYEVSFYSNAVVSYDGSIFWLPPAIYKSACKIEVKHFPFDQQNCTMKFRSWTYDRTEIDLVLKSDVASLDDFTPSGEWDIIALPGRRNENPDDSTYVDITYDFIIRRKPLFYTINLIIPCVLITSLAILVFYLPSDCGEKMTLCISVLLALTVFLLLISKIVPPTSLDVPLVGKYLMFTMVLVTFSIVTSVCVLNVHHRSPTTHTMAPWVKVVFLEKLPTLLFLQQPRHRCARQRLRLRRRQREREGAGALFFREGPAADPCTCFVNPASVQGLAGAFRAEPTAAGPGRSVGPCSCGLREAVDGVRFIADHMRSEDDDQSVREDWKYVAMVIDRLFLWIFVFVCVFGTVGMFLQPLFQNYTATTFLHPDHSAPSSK

Row | Structure (SMILES) | pKi
30 | Cc1ccc(C#Cc2cncc(OC[C@@H]3CCCN3C)c2)cc1 | 9.51
31 | CN1CCC[C@H]1COc1cncc(-c2cc3ccccc3o2)c1 | 9.82
32 | CN1CCC[C@H]1COc1cncc(/C=C/c2ccncc2)c1 | 9.92
33 | CN1CCC[C@H]1COc1cncc(-c2cncnc2)c1 | 9.43
